Laboratory results published in US7803554B2, “Detection of binding factors with fluorescence polarization” (priority 2000, dated 2010).

Assays:
[1] = test system: mouse monoclonal antibody 8E11; test: CE/LIF binding stoichiometry of TMR-BPDE oligonucleotides with antibody; conditions: 24 nM oligonucleotide
Experimental: The separation was carried out at room temperature with a separation voltage of 15 kV. The running buffer were either 1× tris-glycine (25 mM Tris, 192 mM glycine, pH 8.3) or 0.5× tris-glycine (12.5 mM tris and 96 mM glycine, pH 8.3). The capillary was washed approximately every 3 injections with 0.02 M NaOH electrophoretically at 15 kV for 7 min followed by electrophoresis using water and the running buffer for 7 min each. All capillary electrophoresis data were analyzed using Igor Pro software (version 3.1, WaveMetrics Inc., Lake Oswego, Oreg.).
Complex formation of TMR-labeled BPDE-DNA adducts and antibody: TMR-BPDE-16-mer and TMR-BPDE-90-mer samples were diluted to appropriate concentrations in running buffer (tris-glycine, pH 8.3). The double stranded BPDE-90-mer was denatured by heating at 95° C. for 5 min in a heating block. It was then placed on ice to prevent reannealing. After cooling, the samples were briefly centrifuged in a microcentrifuge (Z233M, Hermle) to collect condensation from the side of the tube, then gently mixed to ensure a homogenous solution. TMR-BPDE-16-mer was synthesized as a single-stranded oligonucleotide. […] After addition of antibody to the BPDE-oligonucleotide solutions, the samples were gently vortexed to ensure complete mixing and incubated at the room temperature for 5-10 min, then analyzed by CE/LIF. […]

[2] = molecular target: SSB (Escherichia coli, UniProt P0AGE0); conditions: fluorescence quenching methods; Molineux 1975, Krauss 1981; cited from earlier work
Sequence of SSB (P0AGE0 2-178 limits assumed): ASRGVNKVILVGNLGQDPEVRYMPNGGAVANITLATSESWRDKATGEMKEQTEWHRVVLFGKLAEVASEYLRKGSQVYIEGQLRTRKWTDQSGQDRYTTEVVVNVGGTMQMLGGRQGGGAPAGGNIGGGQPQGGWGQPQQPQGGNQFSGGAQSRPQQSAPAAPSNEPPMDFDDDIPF

[3] = test system: mouse monoclonal antibody 8E11; test: CE/LIF competitive binding of unlabeled BPDE-16-mer and TMR-BPDE-16-mer to antibody; conditions: 9.6 nM 16mer*, 33 nM antibody
Experimental: Simultaneous binding of two BPDE-DNA adducts to the antibody: Both TMR-labeled and unlabeled BPDE-adducts were allowed to bind with the antibody. The freshly diluted BPDE-16-mer (16mer) and TMR-BPDE-16-mer (16mer*) solutions were mixed together before addition of the antibody. Concentrations of the TMR-BPDE-16-mer and the antibody were kept constant at 9.6 nM and 33.3 nM, respectively, and the unlabeled BPDE-16-mer was varied from 2.5 nM to […]. The sample mixtures were incubated for 5 min at room temperature, then analyzed by CE/LIF. Similarly, the antibody was added to mixtures of the TMR-BPDE-16mer and BPDE-90mer to study the competitive binding and ligand exchange.
The relative changes of the primary and secondary complexes with varying concentrations of unlabeled 16mer when it is incubated with 9.6 nM TMR-labeled 16mer* and 33 nM (5 μg/mL) antibody were measured. When the concentration of the unlabeled 16mer is below 10 nM, the primary complex [Ab(16mer*)] dominates and its amount remains almost constant with increasing concentration of the unlabeled 16 mer up to 10 nM. The total ligand concentration (16mer* and 16mer) is lower compared with that of the antibody, and there are excess antibody binding sites available. Thus, no significant competition between the two ligands takes place. […]

Q: Which results are given for “16mer*: 5′-TMR-labeled 16-mer 5′-CCCATTATGCATAACC-3′ with a single BPDE adduct (single BPDE adduct, position not given here)”?
A: share of total oligonucleotide present as secondary complex (1:2) ([1]; antibody 1 μg/mL (maximum)): 50%; share of total oligonucleotide present as primary complex (1:1) with the antibody ([1]; antibody 8-16 μg/mL (50-100 nM)): 80-85%

Q: Which “affinity of SSB” value [2] does the source give for d(pT)8 here?
A: Its value is “about 2×10^6 M^−1”.

Q: Which “affinity of SSB” value [2] does the source give for d(pT)16 here?
A: The value was 1.4e+06 M⁻¹.

Q: For “unlabeled 16mer: unlabeled 16-mer 5′-CCCATTATGCATAACC-3′ with a BPDE adduct (chemistry not fully specified)”, which “competitor concentration at which secondary complexes reach a maximum” value [3] is on record?
A: Its value is 100 nM.

Q: What about the “competitor concentration resulting in disappearance of the primary Ab(16mer*) complex” value [3] of the same substance?
A: The value was “above 250 nM”.
